Measured values from publication PMC9256654, “Mechanistic basis for maintenance of CHG DNA methylation in plants” (Nature Communications, 2022).

Target: T1, CMT3 (Arabidopsis thaliana, UniProt Q94F88)
T1 construct: residues 42-839; N-terminal His6-SUMO tag removed by ULP1; E. coli BL21(DE3) RIL
T1 sequence (Q94F88 42-839): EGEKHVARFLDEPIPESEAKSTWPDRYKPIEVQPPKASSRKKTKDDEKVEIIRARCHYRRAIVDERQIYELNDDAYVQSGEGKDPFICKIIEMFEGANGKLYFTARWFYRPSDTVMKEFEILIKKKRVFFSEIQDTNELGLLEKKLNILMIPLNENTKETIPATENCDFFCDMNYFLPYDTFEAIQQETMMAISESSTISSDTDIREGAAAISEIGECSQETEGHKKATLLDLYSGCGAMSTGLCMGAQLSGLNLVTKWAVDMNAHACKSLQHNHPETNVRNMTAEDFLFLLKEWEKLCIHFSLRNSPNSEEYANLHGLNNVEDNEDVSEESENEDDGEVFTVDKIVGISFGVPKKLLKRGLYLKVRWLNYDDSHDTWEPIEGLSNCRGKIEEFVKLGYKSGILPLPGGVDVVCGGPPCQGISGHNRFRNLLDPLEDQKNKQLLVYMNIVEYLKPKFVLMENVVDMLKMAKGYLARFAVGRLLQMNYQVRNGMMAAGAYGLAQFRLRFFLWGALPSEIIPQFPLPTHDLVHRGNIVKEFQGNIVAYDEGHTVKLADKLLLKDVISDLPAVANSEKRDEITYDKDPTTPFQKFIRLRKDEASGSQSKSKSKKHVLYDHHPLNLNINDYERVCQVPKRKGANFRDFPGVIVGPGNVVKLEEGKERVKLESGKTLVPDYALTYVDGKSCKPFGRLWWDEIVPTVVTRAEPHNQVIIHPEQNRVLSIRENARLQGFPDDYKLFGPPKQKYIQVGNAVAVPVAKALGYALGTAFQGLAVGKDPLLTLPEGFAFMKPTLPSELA
Assay: radiometric DNA methylation assay (3H-methyl transfer, nylon membrane)
Assay type: biochemical
Settings: labelled compound; 0.56 uM [3H]SAM plus 1.96 uM SAM; 4.0 uM DNA; 4.0 uM histone peptide; no added NaCl; pH 8.0, 37 C, 1 h

C[S+](CC[C@H](N)C(=O)O)C[C@H]1O[C@@H](n2cnc3c(N)ncnc32)[C@H](O)[C@@H]1O (stereo partly drawn) [SAM, S-adenosyl-L-methionine]
radiometric DNA methylation assay (3H-methyl transfer, nylon membrane): All the rest of the reaction conditions for CMT3 were the same as those for ZMET2
